Counter-ions that a name gives are not always drawn. Like-named read-outs stand apart in the source and are kept apart here.
Legend:
[1] = tested on: SARS-CoV-2; format: in vivo, Syrian hamster
[2] = tested on: SARS-CoV-2 in Vero cells
[3] = tested on: SARS-CoV-2 in Calu-3 cells
[4] = tested on: SARS-CoV-2; details: cited from earlier work
[5] = in vitro; details: African green monkey, Selectivity Index (Vero cells)
[6] = Plasma protein binding, human; details: for fraction unbound: human, plasma
[7] = Plasma protein binding, hamster; details: for fraction unbound: hamster, plasma
[8] = tested on: SARS-CoV-2 in Vero cells; assay: microbe, parasite or virus in culture; details: Severe acute respiratory syndrome coronavirus 2, Vero
[9] = tested on: SARS-CoV-2 in Calu-3 cells; assay: microbe, parasite or virus in culture
[10] = Population PK model from satellite PK studies in hamster; details: for CL/F, elimination clearance, population estimate (%RSE) / VC/F, central volume of distribution, population estimate (%RSE) / KA, absorption rate constant, population estimate (%RSE) / Q/F (Q1/F), inter-compartment clearance, population estimate (%RSE) / VP/F, peripheral volume of distribution, population estimate (%RSE): hamster of the study's median weight (80-131 g)
[11] = Binding to antiviral assay medium by Rapid Equilibrium Dialysis; details: for fraction unbound: bovine
[12] = Population PK model in human (digitized literature data); details: human; modelled from digitized data; ref 68 (ambroxol), 71-73 (cepharanthine), 78 (fluvoxamine), 80 (molnupiravir)
[13] = cited from earlier work
[14] = doses, frequency, duration as in Table 1
[15] = read-out: VERO cells Average IC50, With Pgp pump inhibitor, 2 μM CP-100356, * one replicate only
[16] = read-out: VERO cells Average IC50, Without Pgp pump inhibitor, * one replicate only
[17] = Severe acute respiratory syndrome coronavirus 2, Calu-3, read-out: Calu-3 cells Average IC50
[18] = antiviral assay medium (DMEM with 2% v/v FCS)
[19] = host cell Calu-3, read-out: SARS-CoV-2 EC50
[20] = host cell Vero, ref 25, read-out: SARS-CoV-2 EC50
[21] = equilibrium dialysis, DNDi in-house

Structure (SMILES): Cc1c(O)cccc1C(=O)N[C@@H](CSc1ccccc1)[C@H](O)CN1C[C@H]2CCCC[C@H]2C[C@H]1C(=O)NC(C)(C)C [Nelfinavir, nelfinavir]
- Activity in SARS-CoV-2 Hamster Model [1, 14]: No ^e
- Lung inflammation and disease outcome ([1]; hamster, in vivo): diminution of lung inflammation
- Virus load ([1]; hamster, in vivo): no effect on viral load was detected
- Activity In Vitro; Potency EC50 or IC50 < 10 µM; Vero Cells [2]: Yes (Potency EC50 or IC50 < 10 µM)
- Toxicity observed (^T), Vero Cells [2]: Yes ^T
- Activity In Vitro; Potency EC50 or IC50 < 10 µM; Calu-3 Cells [3]: Yes (Potency EC50 or IC50 < 10 µM)
- EC50 ([4]; host cell Vero E6, ref 41, read-out: SARS-CoV-2 EC50): 2.89 µM
- EC50 ([4]; host cell Vero, ref 40, read-out: SARS-CoV-2 EC50): 0.048 µM
- EC50 ([4]; host cell VeroE6/TMPRSS2, read-out: SARS-CoV-2 EC50): 0.77 µM
- selectivity ratio ([5]; With Pgp pump inhibitor): > 32
- selectivity ratio ([5]; Without Pgp pump inhibitor): > 9
- fraction unbound [6]: 0.001
- fraction unbound [7]: 0.001
- IC50 [8, 15]: 1.6 µM
- IC50 [8, 16]: 5.5 µM
- IC50 [9, 17]: 12.8 µM
- IC50 ([9]; Severe acute respiratory syndrome coronavirus 2, Calu-3, read-out: EC50 or IC50, Calu-3 Cells (borderline)): 13 µM
- Dose effect on F (linear) ([10]; covariate, hamster model): 0.384 (32)
- Dose effect on KA (linear) ([10]; covariate, hamster model): -0.801 (3.7)
- CL/F, elimination clearance, population estimate (%RSE) [10]: 613 (4.2) mL/h
- VC/F, central volume of distribution, population estimate (%RSE) [10]: 547 (15.3) mL
- fraction unbound [11, 18]: 0.243

Structure (SMILES): CNCCC(Oc1ccc(C(F)(F)F)cc1)c1ccccc1 (centres unmarked) [Fluoxetine, fluoxetine]
- Activity in SARS-CoV-2 Hamster Model ([1]; hamster, in vivo): No
- Activity In Vitro; Potency EC50 or IC50 < 10 µM; Vero Cells [2]: Yes ^T (key: Yes: Potency EC50 or IC50 < 10 µM; No: Potency EC50 or IC50 < 10 µM)
- Toxicity observed (^T), Vero Cells [2]: Yes ^T
- Activity In Vitro; Potency EC50 or IC50 < 10 µM; Calu-3 Cells [3]: No (key: Yes: Potency EC50 or IC50 < 10 µM; No: Potency EC50 or IC50 < 10 µM)
- fraction unbound [6]: 0.048
- fraction unbound [7]: 0.051
- IC50 ([8]; read-out: VERO cells Average IC50, With Pgp pump inhibitor): 5.6 µM
- IC50 ([8]; read-out: VERO cells Average IC50, Without Pgp pump inhibitor): 7.7 µM
- Dose effect on FFP (power) ([10]; covariate, hamster model): -0.0175 (13.7)
- CL/F, elimination clearance, population estimate (%RSE) [10]: 447 (7.0) mL/h
- KA, absorption rate constant, population estimate (%RSE) [10]: 5.34 (11.7) h-1
- VC/F, central volume of distribution, population estimate (%RSE) [10]: 3530 (6.5) mL
- fraction unbound [11, 18]: 0.682

Structure (SMILES): CCN(CC)Cc1cc(Nc2ccnc3cc(Cl)ccc23)ccc1O [Amodiaquine, amodiaquine]
- Activity in SARS-CoV-2 Hamster Model [1, 14]: No (parent)
- Activity In Vitro; Potency EC50 or IC50 < 10 µM; Vero Cells [2]: Yes (Potency EC50 or IC50 < 10 µM)
- Activity In Vitro; Potency EC50 or IC50 < 10 µM; Calu-3 Cells [3]: No (Potency EC50 or IC50 < 10 µM)
- EC50 [4, 19]: > 50 µM
- EC50 ([4]; host cell Huh7.5, read-out: SARS-CoV-2 EC50): 0.6 µM
- EC50 ([4]; host cell Vero CCL81, read-out: SARS-CoV-2 EC50): 1.6 µM
- EC50 ([4]; host cell Vero E6, ref 29, read-out: SARS-CoV-2 EC50): 10 µM
- EC50 ([4]; host cell Vero E6, ref 30, read-out: SARS-CoV-2 EC50): 4.9 µM
- EC50 [4, 20]: 5.2 µM
- selectivity ratio ([5]; With Pgp pump inhibitor): > 19
- selectivity ratio ([5]; Without Pgp pump inhibitor): > 5.7
- fraction unbound [6]: 0.067
- fraction unbound [7]: 0.096
- IC50 ([8]; read-out: EC50 or IC50, Vero Cells): ~10 µM
- IC50 [8, 15]: 2.6 µM
- IC50 [8, 16]: 8.8 µM
- IC50 [9, 17]: > 50 µM
- Route effect (SC) on CL/F ([10]; covariate, hamster model): -85.3 (1.81%)
- Route effect (SC) on KA ([10]; covariate, hamster model): -20.4 (19.8%)
- CL/F, elimination clearance, population estimate (%RSE) [10]: 4390 (7.44%) mL/h
- KA, absorption rate constant, population estimate (%RSE) [10]: 0.0784 (6.52%) h-1
- VC/F, central volume of distribution, population estimate (%RSE) [10]: 158 (15.3%) mL
- fraction unbound [11, 18]: 0.878

Structure (SMILES): COCCCC/C(=N\OCCN)c1ccc(C(F)(F)F)cc1 [Fluvoxamine maleate, fluvoxamine maleate]
- Activity in SARS-CoV-2 Hamster Model [1, 14]: No
- CL/F, population estimate (%RSE) [12]: 0.148 (3.0) L/h
- Activity In Vitro; Potency EC50 or IC50 < 10 µM; Vero Cells [2]: No (key: Yes: Potency EC50 or IC50 < 10 µM; No: Potency EC50 or IC50 < 10 µM)
- Activity In Vitro; Potency EC50 or IC50 < 10 µM; Calu-3 Cells [3]: No (key: Yes: Potency EC50 or IC50 < 10 µM; No: Potency EC50 or IC50 < 10 µM)
- fraction unbound [6]: 0.254
- fraction unbound [7]: 0.281
- IC50 [8, 15]: 32.6 µM
- IC50 [8, 16]: 26 µM
- IC50 [9, 17]: > 50 µM
- Dose effect on F (power) ([10]; covariate, hamster model): 1.21 (7.4)
- CL/F, elimination clearance, population estimate (%RSE) [10]: 9500 (10.8) mL/h
- VC/F, central volume of distribution, population estimate (%RSE) [10]: 16500 (12.8) mL
- fraction unbound [11, 18]: 0.771

Structure (SMILES): CCC(CC)COC(=O)[C@H](C)N[P@](=O)(OC[C@H]1O[C@@](C#N)(c2ccc3c(N)ncnn23)[C@H](O)[C@@H]1O)Oc1ccccc1 [remdesivir]
- Effect on lung infectious titers ([1]; hamster, in vivo): no significant effect
- Effect on lung viral RNA yields ([1]; hamster, in vivo): little significant effect
- Plasma stability, half-life ([13]; genetically modified mouse (Cesc-/- knockout)): around 25 min
- Plasma stability, half-life ([13]; mice): < 5 min

Structure (SMILES): Nc1c(Br)cc(Br)cc1CN[C@H]1CC[C@H](O)CC1 [Ambroxol, ambroxol]
- Activity in SARS-CoV-2 Hamster Model [1, 14]: No
- CL/F, population estimate (%RSE) [12]: 41.4 (3.0%) L/h
- Activity In Vitro; Potency EC50 or IC50 < 10 µM; Vero Cells [2]: No (Potency EC50 or IC50 < 10 µM)
- Activity In Vitro; Potency EC50 or IC50 < 10 µM; Calu-3 Cells [3]: No (Potency EC50 or IC50 < 10 µM)
- EC50 ([4]; host cell Vero E6, ref 47, read-out: SARS-CoV-2 EC50): > 30 µM
- fraction unbound [6]: 0.238
- fraction unbound [7]: 0.125
- IC50 [8, 15]: > 50 µM
- IC50 [8, 16]: > 50 µM
- IC50 [9, 17]: > 50 µM
- Dose effect on F (power) ([10]; covariate, hamster model): 0.689 (11.1%)
- CL/F, elimination clearance, population estimate (%RSE) [10]: 4860 (11.3%) mL/h
- KA, absorption rate constant, population estimate (%RSE) [10]: 4.76 (15.1%) h-1
- Q/F (Q1/F), inter-compartment clearance, population estimate (%RSE) [10]: 1180 (22.5%) mL/h
- VC/F, central volume of distribution, population estimate (%RSE) [10]: 12000 (10.9%) mL
- VP/F, peripheral volume of distribution, population estimate (%RSE) [10]: 16100 (31.6%) mL
- fraction unbound [11, 18]: 0.954

Structure (SMILES): CC(C)OC(=O)[C@H](C)N[P@](=O)(OC[C@H]1O[C@@H](n2ccc(=O)[nH]c2=O)[C@](C)(F)[C@@H]1O)Oc1ccccc1 [Sofosbuvir, sofosbuvir]
- Activity in SARS-CoV-2 Hamster Model [1, 14]: No
- Activity in SARS-CoV-2 Hamster Model ([1]; doses, frequency, duration as in Table 1, listed as sofosbuvir): no activity
- Activity In Vitro; Potency EC50 or IC50 < 10 µM; Vero Cells [2]: No (Potency EC50 or IC50 < 10 µM)
- Activity In Vitro; Potency EC50 or IC50 < 10 µM; Calu-3 Cells [3]: No (Potency EC50 or IC50 < 10 µM)
- EC50 [4, 19]: 7.3 µM
- EC50 ([4]; host cell HuH-7, read-out: SARS-CoV-2 EC50): 5.1 µM
- EC50 ([4]; host cell Vero, ref 26, read-out: SARS-CoV-2 EC50): > 10 µM
- IC50 [8, 15]: > 50 µM
- IC50 [8, 16]: > 50 µM
- IC50 [9, 17]: > 50 µM
- CL/F, elimination clearance, population estimate (%RSE) [10]: 122000 (14.4) mL/h
- KA, absorption rate constant, population estimate (%RSE) [10]: 0.622 (15.9) h-1
- Q/F (Q1/F), inter-compartment clearance, population estimate (%RSE) [10]: 139000 (17.2) mL/h
- VC/F, central volume of distribution, population estimate (%RSE) [10]: 46600 (29.9) mL
- VP/F, peripheral volume of distribution, population estimate (%RSE) [10]: 1490000 (27.9) mL
- fraction unbound [11]: 0.716

Structure (SMILES): COC(=O)N[C@H](C(=O)N[C@@H](Cc1ccccc1)[C@@H](O)CN(Cc1ccc(-c2ccccn2)cc1)NC(=O)[C@@H](NC(=O)OC)C(C)(C)C)C(C)(C)C [Atazanavir, atazanavir]
- Activity in SARS-CoV-2 Hamster Model [1, 14]: no activity
- EC50 ([4]; atazanavir and ATZ/ritonavir combination, read-out: EC50 in infected A549 lung epithelia cells): 0.6 µM
- EC50 ([4]; host cell A549, read-out: SARS-CoV-2 EC50): 0.2 µM
- EC50 ([4]; host cell Vero E6, ref 23, read-out: SARS-CoV-2 EC50): 2 µM
- EC50 ([4]; host cell Vero E6, ref 24, read-out: SARS-CoV-2 EC50): 9.36 µM
- EC50 [4, 20]: > 50 µM
- selectivity ratio ([5]; Without Pgp pump inhibitor): > 2.2
- fraction unbound [7]: 0.2
- IC50 [8, 15]: > 50 µM
- IC50 [8, 16]: 45.5 µM
- IC50 [9, 17]: 21 µM
- fraction unbound [11, 18]: 0.348

Structure (SMILES): C[C@@]1(F)[C@H](O)[C@@H](CO)O[C@H]1n1cnc2c(=O)[nH]c(N)nc21 [AT-273]
- Fraction unbound in plasma, human [6, 21]: 57.8%
- Fraction unbound in plasma, hamster [7, 21]: 95.5%
- KTR, population estimate (%RSE) ([10]; hamster 119 g): 12.3 (50.5) h-1
- CL/F, elimination clearance, population estimate (%RSE) [10]: 5.77 (33.1) mL/h
- Q/F (Q1/F), inter-compartment clearance, population estimate (%RSE) [10]: 6730 (12.2) mL/h
- VC/F, central volume of distribution, population estimate (%RSE) [10]: 49200 (13.2) mL
- VP/F, peripheral volume of distribution, population estimate (%RSE) [10]: 84800 (27.3) mL
- Fraction unbound in assay medium ([11]; 2% serum DMEM media, DNDi in-house data): 99.1%
